Data: US20260325655A1, “DECREASING THE INTRINSICALLY DISORDERED PROTEIN ALPHA-SYNUCLEIN’S LEVELS BY TARGETING ITS STRUCTURED MRNA WITH A RIBONUCLEASE TARGETING CHIMERA” (University of Florida Research Foundation, Incorporated, priority 2023, published 2026)

Legend:
Assay type in all cases: cell-based, human
APP mRNA = APP mRNA in SH-SY5Y cells by RT-qPCR
Procedure: (§1) RNA extraction and reverse transcription-quantitative polymerase chain reaction (RT-qPCR). Total RNA was extracted from cells using a Quick-RNA MiniPrep Kit (Zymo Research) per the manufacturer's protocol including DNase treatment. For each sample, 200 ng of RNA was reverse transcribed into cDNA by using a qScript cDNA Synthesis Kit (QuantaBio) according to the manufacturer's instructions. To assess the relative mRNA levels, RT-qPCR was performed in triplicate using SYBR Green PCR mater mix (Applied Biosystems) with a Quant Studio 5 Real-Time PCR system. The relative levels of mRNA were calculated by using the ΔΔCt method as previously described.^8

SH-SY5Y cells = test: cytoprotection of SH-SY5Y cells against α-synuclein pre-formed fibrils (PFF), LDH assay; conditions: Syn-RIBOTAC vs Synucleozid 2.0
Procedure: Lactate Dehydrogenase (LDH) assay. SH-SY5Y cells in 96-well plates (~60% confluency) were pre-treated with compounds in growth medium for 24 h, followed by addition of 50 ng/μL of human α-synuclein pre-formed fibrils (PFFs, SPR-322 from Eagle Biosciences). The cells were then incubated for an additional 48 h. Cell viability was measured using LDH (Lactate Dehydrogenase) Cytotoxicity Detection Kit (MK401; Takara) according to the manufacturer's instructions.

MYO15B = MYO15B protein in SH-SY5Y cells by Western blot; conditions: 2 μM, 48 h
Procedure: (§2) Western blotting. After 48 h, cells were gently washed with ice-cold 1× DPBS, and total protein was extracted with Mammalian Protein Extraction Reagent (M-PER, Thermo Scientific) per the manufacturer's protocol. After quantifying protein concentration by using BCA Protein Assay Kit (Pierce Biotechnology), ~30 μg of total protein for each sample was separated using a 10% SDS-polyacrylamide gel and transferred onto a PVDF membrane. The membrane was fixed with 0.4% paraformaldehyde (pH=7.0) for 30 min at room temperature^9 and then blocked with 5% (w/v) non-fat dry milk in 1× TBST (1× TBS containing 0.1% Tween-20) for 1 h at room temperature. […] After washing 10 min each with 1× TBST three times, immunocomplex signals of each protein were detected by using a SuperSignal West Pico Chemiluminescent Substrate (Pierce Biotechnology) according to the manufacturer's protocol. The memebrane was then stripped by using 1× Stripping Buffer (200 mM glycine, pH 2.2, 4 mM SDS, 1% (v/v) Tween 20) at room temperature for 15 min, followed by blocking with 5% (w/v) non-fat dry milk at room temperature for 1 h. β-actin was used to normalize the levels of all proteins, measured by incubating with a primary antibody for β-actin (1:5000, 3700S from Cell Signaling Technology) at 4° C. overnight. […]

[1] = tested on: seven proteins encoded by genes enriched by Syn-CLIP; test: Western blot validation of seven proteins encoded by transcripts enriched by Syn-CLIP; conditions: 2 μM, 48 h; SH-SY5Y
Procedure: as §2

APP = APP protein in SH-SY5Y cells by Western blot
Procedure: as §2

SNCA-UTR-Luciferase = test: SNCA-UTR luciferase reporter assay; conditions: Homo sapiens, M-HeLa; 2 μM; HeLa cells; read-out: decrease of luminescence signal
Excerpt: (§3) Plasmid constructs and establishment of reporter gene overexpressing cells. Construction of pIRES-Luc-EGFP-puro plasmid and pCDH-α-syn-5′-UTR-Luc-EGFP-puro plasmid used in 5′ UTR-luciferase-based selectivity assay were previously described.^4 Briefly, In-Fusion PCR cloning system (Takara Bio, Mountain View, CA, USA) was used for all plasmid constructions per the manufacturer's instructions. To ensure sequence accuracy, all plasmids generated in this study were confirmed by sequencing.
(§4) Luciferase assay. The effect of compounds on translation of SNCA IRE-containing transcript was measured by using a luciferase reporter assay. HeLa cells (~60% confluency) were transfected with plasmids (2 μg per 60 mm dish) by using JetPrime (Polyplus Transfection) according to the manufacturer's recommended procedures. Approximately 16 h after transfection, the transfection cocktail was removed, and the cells were trypsinized and seeded to 96-well plates (8,000 cells per well). After 6 h, cells were treated as described in Cell Culture. To measure the luciferase signals, the cells were then washed with 1× DPBS, and luciferase activity in each well was measured by using the ONE-Glo Luciferase Assay System (Promega) per the manufacturer's instructions. Luminescence from firefly luciferase reaction was measured using a Biomek FLx800 plate reader.

HHIPL1 = HHIPL1 protein in SH-SY5Y cells by Western blot; conditions: 2 μM, 48 h
Procedure: as §2

[2] = tested on: control luciferase reporter lacking an IRE; test: control luciferase reporter lacking an IRE; conditions: reporter lacks IRE / SNCA-UTR sequence
Excerpt: as §3, §4

TfR = TfR protein in SH-SY5Y cells by Western blot
Procedure: as §2

[3] = tested on: SNCA IRE-luciferase transcript; test: SNCA IRE-luciferase transcript abundance by RT-qPCR; conditions: Homo sapiens, 2 μM, read-out: reduction of SNCA IRE-luciferase transcript levels
Procedure: as §1, §3

[4] = tested on: SNCA IRE-luciferase reporter; test: wash-out experiment using the luciferase reporter assay; conditions: 16 h after compound removal; 2 μM
Excerpt: as §3, §4

SMILES	effect on APP mRNA level (APP mRNA)	cytoprotective effect relative to the binding small molecule (SH-SY5Y cells)	reduction of MYO15B protein level (MYO15B)	effect on seven proteins by Western blot [1]	effect on APP protein level (APP)	inhibition at 2 µM (SNCA-UTR-Luciferase) [%]	reduction of HHIPL1 protein level (HHIPL1)	inhibition in the control luciferase reporter [2]	effect on TfR protein level (TfR)	inhibition at 2 µM [3] [%]	activity after wash-out (in words) [4]
CCOC(=O)C1=C(Nc2ccccc2)S/C(=C\c2ccc(OCCOCCOCCOCCNC(=O)CCCOc3ccc(-n4c(SCC(=O)Nc5ccc6cn[nH]c6c5)nnc4-c4ccncc4)cc3)c(O)c2)C1=O [Syn-RiboTAC]	None of the three transcripts was affected	5 -fold	~ 20%	did not affect these seven proteins	no effect	~40	~ 20%	Neither compound showed inhibition	no effect	~50	–
O=C(CSc1nnc(-c2ccncc2)n1-c1ccc(Br)cc1)Nc1ccc2cn[nH]c2c1 [Synucleozid-2.0]	–	–	–	did not affect these seven proteins	–	~25	–	–	–	–	inactive
